The results in this text go back to publication PMC8972196, “A Set of Experimentally Validated Decoys for the Human CC Chemokine Receptor 7 (CCR7) Obtained by Virtual Screening” (Frontiers in Pharmacology, 2022).

Molecules are shown by their SMILES. Where two headings read alike, the source gives them in different places.

This assay deals with T1, human CCR7 (Homo sapiens, UniProt P32248).
T1 construct: expressed in transfected cells
T1 sequence (P32248 25-378): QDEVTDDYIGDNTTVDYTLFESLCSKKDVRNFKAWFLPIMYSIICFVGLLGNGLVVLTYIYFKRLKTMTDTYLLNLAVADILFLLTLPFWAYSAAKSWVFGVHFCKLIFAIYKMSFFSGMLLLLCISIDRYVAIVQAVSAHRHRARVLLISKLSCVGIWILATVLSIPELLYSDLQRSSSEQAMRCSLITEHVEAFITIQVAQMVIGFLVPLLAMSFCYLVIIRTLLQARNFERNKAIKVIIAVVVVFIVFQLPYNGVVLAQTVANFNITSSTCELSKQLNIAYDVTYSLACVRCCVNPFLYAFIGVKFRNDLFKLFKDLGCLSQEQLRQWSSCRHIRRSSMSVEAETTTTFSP
In words: CCL19-induced calcium mobilization assay, U87.CD4 cells expressing CCR7. It is filed as cell-based. As to conditions: for IC50: read-out: IC50 [μM] block CCL19 induced calcium signaling. As for the experimental part:
U87.CD4 cells that stably express either human CCR7, CXCR2, CCR5 or CXCR4 were seeded (20,000 cells/well) in gelatin-coated black-walled polystyrene 96-well plates with clear bottom and incubated overnight at 37°C and 5% CO2. […] Culture medium was removed, and cells were incubated for 45 min at room temperature in the dark. […] Exactly the same protocol was used to record calcium responses in Chinese hamster ovary (CHO)-K1 cells, upon stimulation with adenosine triphosphate (ATP, purchased from Sigma).
For orientation: Calcium assays in cells follow changes in intracellular calcium, usually with a dye or a luminescent sensor.

[1] abbreviates: CCL19 induced calcium signaling.
Where [2] appears, read: classification as decoy or active on CCR7.
Where [3] appears, read: CCL19-induced calcium signaling.
Setting [4] is: classification of tested compounds as decoy or active.

For orientation: IC50 means the concentration that gives 50% inhibition. In the case of `COc1cccc(N2CC(NC(=O)c3cccc4ccccc34)CC2=O)c1` (stereo not drawn) [C188, COc1cccc(N2CC(NC(=O)c3cccc4ccccc34)CC2=O)c1], the IC50 under setting [1] was greater than 50 µM. Under setting [2], the “Decoy – 0 Active – 1” value turned out to be 0.
In the case of `CC1CN(C(=O)C(C)N2CCC(NS(=O)(=O)c3ccccc3)CC2)CC(C)O1` (stereo not drawn) [C272, CC1CN(CC(O1)C)C(=O)C(C)[NH+]2CCC(CC2)NS(=O)(=O)c3ccccc3], the IC50 under setting [1] was greater than 50 µM. Under setting [2], the “Decoy – 0 Active – 1” value is on record as 0.
The matching figures for `CC1CN(C(=O)c2cc3c(OC(F)(F)F)cccc3[nH]2)CC(=O)N1` (stereo not drawn) [C176, CC1CN(C(=O)c2cc3c(OC(F)(F)F)cccc3[nH]2)CC(=O)N1]: greater than 50 µM and 0.
Turning to `CN(C)[C@H]1CCCC[C@@H]1Nc1c(NCc2cc(C(F)(F)F)cc(C(F)(F)F)c2)c(=O)c1=O` [C020, O=C1C(N[C@H]2CCCC[C@@H]2N(C)C)=C(NCC3=CC(C(F)(F)F)=CC(C(F)(F)F)=C3)C1=O], the half-maximal inhibitory concentration (IC50) under setting [3] is greater than 50 µM. For the same compound, the “Decoy – 0 Active – 1” value under setting [4] was 0.
`COc1ccc(S(=O)(=O)N2CC(C(=O)Nc3ccccc3)Oc3ccccc32)cc1` (stereo not drawn) [C265, COc1ccc(cc1)S(=O)(=O)N2CC(Oc3c2cccc3)C(=O)Nc4ccccc4]: the IC50 under setting [1] is greater than 50 µM. The “Decoy – 0 Active – 1” value under setting [2] was found to be 0.
The like results for `O=C1CC(C(=O)NCc2csc3c2CCCC3)C2(CCCC2)O1` (stereo not drawn) [C229, O=C1CC(C(=O)NCc2csc3c2CCCC3)C2(CCCC2)O1] were, in that order, greater than 50 µM and 0.
On to `Cc1ccc(C(C)NC(=O)C(=O)Nc2cc(C(=O)N(C)C)ccc2C)o1` (stereo not drawn) [C058, Cc1ccc(C(C)NC(=O)C(=O)Nc2cc(C(=O)N(C)C)ccc2C)o1], for which the 50% inhibitory concentration (IC50) under setting [3] is greater than 10 µM. Also, the “Decoy – 0 Active – 1” value under setting [4] turned out to be 0.
The matching figures for `O=C([C@@H]1C[C@@H]1c1ccco1)N1CCC[C@H]1Cc1ccc(F)cc1` [C154, O=C([C@@H]1C[C@@H]1c1ccco1)N1CCC[C@H]1Cc1ccc(F)cc1]: greater than 50 µM and 0.
For the compound `O=C1CC(NC(=O)N2CCCC2c2ccccc2)CN1c1ccccc1` (stereo not drawn) [C198, O=C1CC(NC(=O)N2CCCC2c2ccccc2)CN1c1ccccc1], the IC50 under setting [1] was greater than 50 µM. Also, the “Decoy – 0 Active – 1” value under setting [2] was 0.
As for `NC(=O)C1CC(O)CN1C(=S)Nc1ccc(S(=O)(=O)N2CCOCC2)cc1` (stereo not drawn) [C028, NC(=O)C1CC(O)CN1C(=S)Nc1ccc(cc1)S(=O)(=O)N1CCOCC1], the half-maximal inhibitory concentration (IC50) under setting [3] was greater than 30 µM. The “Decoy – 0 Active – 1” value under setting [4] was 0.
The like results for `CCNC(=O)CNc1ccc(C)c(C(=O)N(C)C)c1` [C072, CCNC(=O)CNc1ccc(C)c(C(=O)N(C)C)c1] were, in that order, greater than 10 µM and 0.
As to `CC(=O)N1CCC2(CC1)CC(C(=O)O)N(C(=O)c1ccc(C)c3ccccc13)C2` (stereo not drawn) [C212, CC(=O)N1CCC2(CC1)CC(C(=O)[O-])N(C(=O)c1ccc(C)c3ccccc13)C2], the IC50 under setting [1] was greater than 50 µM. In addition, the “Decoy – 0 Active – 1” value under setting [2] was determined as 0.
The like results for `O=S(=O)(NCC(c1ccco1)N1CCc2ccccc21)c1ccc2c(c1)OCCO2` (stereo not drawn) [C238, c1ccc2c(c1)CCN2C(CNS(=O)(=O)c3ccc4c(c3)OCCO4)c5ccco5] were, in that order, greater than 50 µM and 0.
`CN(C)[C@@H]1CCCC[C@H]1Nc1c(NCc2cc(C(F)(F)F)cc(C(F)(F)F)c2)c(=O)c1=O` [C021, CN(C)[C@@H]1CCCC[C@H]1NC(C2=O)=C(NCC3=CC(C(F)(F)F)=CC(C(F)(F)F)=C3)C2=O]: the IC50 under setting [3] was greater than 50 µM. Further, the “Decoy – 0 Active – 1” value under setting [4] was found to be 0.
The like results for `O=S1(=O)N=C(NCCN2CCCC2)C(NCCN2CCCC2)=N1` [C150, O=S1(=O)N=C(NCC[NH+]2CCCC2)C(NCC[NH+]2CCCC2)=N1] were, in that order, greater than 50 µM and 0.
The matching figures for `O=c1c(Nc2cc(C(F)(F)F)cc(C(F)(F)F)c2)c(Nc2cc(C(F)(F)F)cc(C(F)(F)F)c2)c1=O` [C018, O=C1C(NC2=CC(C(F)(F)F)=CC(C(F)(F)F)=C2)=C(NC3=CC(C(F)(F)F)=CC(C(F)(F)F)=C3)C1=O]: greater than 50 µM and 0.
The like results for `CCOC(=O)NC(=S)Nc1ncccn1` [C045, S=C(NC(OCC)=O)NC1=NC=CC=N1] were, in that order, greater than 30 µM and 0.
Consider `CC(C)C1(CO)CCCN(C(=O)NCc2ccc(Cl)cc2F)C1` (stereo not drawn) [C168, CC(C)C1(CO)CCCN(C(=O)NCc2ccc(Cl)cc2F)C1], for which the IC50 under setting [1] is greater than 50 µM. Under setting [2], the “Decoy – 0 Active – 1” value was determined as 0.
In the case of `COC(=O)c1sccc1Nc1c(NCc2ccc(Cl)cc2)c(=O)c1=O` [C009, COC(=O)c1sccc1Nc1c(NCc2ccc(Cl)cc2)c(=O)c1=O], the half-inhibitory concentration (IC50) under setting [3] is greater than 50 µM. Moreover, the “Decoy – 0 Active – 1” value under setting [4] was 0.
For the compound `CC(O)c1ccc(S(=O)(=O)NC(c2ccccc2)c2nccn2C)cc1` (stereo not drawn) [C247, CC(c1ccc(cc1)S(=O)(=O)NC(c2ccccc2)c3nccn3C)O], under setting [1], the IC50 is greater than 50 µM. Moreover, under setting [2], the “Decoy – 0 Active – 1” value was found to be 0.
As for `Cc1ccnc(NC(=S)NC(=O)c2cccc3ccccc23)c1` [C032, Cc1ccnc(NC(=S)NC(=O)c2cccc3ccccc23)c1], under setting [3], the IC50 was greater than 30 µM. For the same compound, the “Decoy – 0 Active – 1” value under setting [4] was found to be 0.
The matching figures for `O=S1(=O)C[C@H](Nc2ccc(Cl)cc2)[C@H](NCc2ccccc2)C1` [C122, O=S1(=O)C[C@@H](NCc2ccccc2)[C@@H](Nc2ccc(Cl)cc2)C1]: greater than 50 µM and 0.
Turning to `COc1cccc(C2CC(O)CN2Cc2nc3ccccc3[nH]2)c1` (stereo not drawn) [C279, COc1cccc(C2CC(O)CN2Cc2nc3ccccc3[nH]2)c1], the IC50 under setting [1] is greater than 50 µM. For the same compound, the “Decoy – 0 Active – 1” value under setting [2] is 0.
The like results for `CC(=O)N1CCCCC1CC(=O)NC1(C)CCc2ccccc2C1` (stereo not drawn) [C193, CC(=O)N1CCCCC1CC(=O)NC1(C)CCc2ccccc2C1] were, in that order, greater than 50 µM and 0.
Regarding `COc1ccc([N+](=O)[O-])c(C(=O)N[C@@H](c2ncccc2C)C(C)C)c1` [C135, COc1ccc([N+](=O)[O-])c(C(=O)N[C@@H](c2ncccc2C)C(C)C)c1], the half-maximal inhibitory concentration (IC50) under setting [3] is greater than 50 µM. The “Decoy – 0 Active – 1” value under setting [4] was found to be 0.
Take `O=C1CCC(C(=O)N2CCCC2c2ccc3c(c2)OCO3)N1` (stereo not drawn) [C231, O=C1CCC(C(=O)N2CCCC2c2ccc3c(c2)OCO3)N1]: under setting [1], the IC50 is greater than 50 µM. Further, the “Decoy – 0 Active – 1” value under setting [2] is on record as 0.
On to `C/N=C(\NCCC(=O)N(C)C)N[C@H](C)c1ccc(C)o1` [C140, C/[NH+]=C(\NCCC(=O)N(C)C)N[C@H](C)c1ccc(C)o1], for which the IC50 under setting [3] was greater than 50 µM. Also, the “Decoy – 0 Active – 1” value under setting [4] stood at 0.
The like results for `CN(C)C(=O)c1cccc(NC(=O)NCCC2=CCCCC2)c1` [C127, CN(C)C(=O)c1cccc(NC(=O)NCCC2=CCCCC2)c1] were, in that order, greater than 50 µM and 0.
The matching figures for `C[C@@H]1CCN(Cc2ccccc2)C[C@H]1Nc1nccc(C(N)=O)c1[N+](=O)[O-]` [C116, C[C@@H]1CC[N@H+](Cc2ccccc2)C[C@H]1Nc1nccc(C(N)=O)c1[N+](=O)[O-]]: greater than 50 µM and 0.
Take `CCCc1ccc(S(=O)(=O)NC2COc3ccc(OC)cc3C2)cc1` (stereo not drawn) [C254, CCCc1ccc(cc1)S(=O)(=O)NC2Cc3cc(ccc3OC2)OC]: the 50% inhibitory concentration (IC50) under setting [1] was greater than 50 µM. In addition, the “Decoy – 0 Active – 1” value under setting [2] is 0.
The like results for `COc1ccc(C(=O)C2CCCN(Cc3cc4ccccc4[nH]3)C2)c(OC)c1` (stereo not drawn) [C273, COc1ccc(C(=O)C2CCCN(Cc3cc4ccccc4[nH]3)C2)c(OC)c1] were, in that order, greater than 50 µM and 0.
With `FC(F)(F)c1cccc(NC(=S)NCc2ccccc2C(F)(F)F)c1` [C036, FC(F)(F)c1cccc(NC(=S)NCc2ccccc2C(F)(F)F)c1], the IC50 under setting [3] was greater than 30 µM. For the same compound, the “Decoy – 0 Active – 1” value under setting [4] came to 0.
The matching figures for `C[C@H](c1ccccc1)[C@@H](C)NC(=O)N[C@H]1CCN(C)C1=O` [C114, C[C@@H](NC(=O)N[C@H]1CCN(C)C1=O)[C@H](C)c1ccccc1]: greater than 50 µM and 0.
For the compound `O=C1CCCc2[nH]c(=O)c(C(=O)NC3CCc4cc(F)ccc43)cc21` (stereo not drawn) [C286, O=C1CCCc2[nH]c(=O)c(C(=O)NC3CCc4cc(F)ccc43)cc21], under setting [1], the IC50 is greater than 50 µM. Besides, the “Decoy – 0 Active – 1” value under setting [2] was found to be 0.
The matching figures for `COc1ccccc1NC(=O)CN(c1ccccc1)S(=O)(=O)c1ccc(OC)c(OC)c1` [C235, COc1ccccc1NC(=O)CN(c2ccccc2)S(=O)(=O)c3ccc(c(c3)OC)OC]: greater than 50 µM and 0.
As to `CNC(=O)c1ccc(C=CC(=O)N(Cc2ccsc2)C2CC2)cc1` [C059, CNC(=O)c1ccc(C=CC(=O)N(Cc2ccsc2)C2CC2)cc1], the IC50 under setting [3] was greater than 10 µM. The “Decoy – 0 Active – 1” value under setting [4] worked out at 0.
For the compound `CC(C)c1ccc(S(=O)(=O)N2CCN(C)CC2c2ccccc2)cc1` (stereo not drawn) [C237, CC(C)c1ccc(cc1)S(=O)(=O)N2CC[NH+](CC2c3ccccc3)C], the IC50 under setting [1] was greater than 50 µM. Further, the “Decoy – 0 Active – 1” value under setting [2] stood at 0.
The matching figures for `CC1CCc2c(F)cccc2C1NC(=O)c1n[nH]c(=O)[nH]1` (stereo not drawn) [C222, CC1CCc2c(F)cccc2C1NC(=O)c1n[nH]c(=O)[nH]1]: greater than 50 µM and 0.
Turning to `O=C1NC[C@H](C(=O)N(Cc2ccco2)C2CC2)N1` [C151, O=C1NC[C@H](C(=O)N(Cc2ccco2)C2CC2)N1], the IC50 under setting [3] was greater than 50 µM. Under setting [4], the “Decoy – 0 Active – 1” value was found to be 0.
